Data from patent publication US8722723B2, “Aromatic amide derivative” (Research Foundation Itsuu Laboratory, priority 2008, dated 2014).

How the values were obtained:
luciferase (Luc) = assay: Reporter assay: Hela cells transfected with human RORα1 expression vector and luciferase (Luc) reporter vector; Luc activity corrected with β-Gal activity; type: cell-based, firefly; set-up: key: β-Gal-corrected Luc activity; smaller = inhibition, larger = promotion; conditions: human RORα1 expression vector, rev-DR2/TK-Luc reporter, about 1 day, smaller number = inhibitory, larger = promoting
Description: The reporter assay was used, in which Hela cells transfected with each of a pcDNA3 vector incorporated with the human RORα1 so that the gene can be expressed in animal cells as an expression vector, and a pGL3 promoter vector of which SV40 promoter was replaced with TK promoter as a luciferase expression reporter vector were used.
The Hela cells were placed at a density of 2×10^4 cells/0.1 mL/well on a 96-well cell culture plate (FALCON) by using 10% FBS-DMEM. On the next day, the human RORα1 expression vector, the reporter vector incorporated with 3 copies of rev-DR2 sequences and the HSV thymidine kinase promoter at a position upstream from the luciferase (Luc) gene, and a β-galactosidase (β-Gal) expression vector for control were introduced into the cells by using a transfection reagent (Fugene6, Roche). On the next day, the medium was replaced with 5% FBS-DMEM containing a test compound diluted at a prescribed concentration, after about 1 day, the cell supernatant was removed, then the cells were lysed (Passive Lysis buffer, Promega), the Luc substrate (PicaGene, Toyo Ink) was added to a part of the lysed cells, and the activity of produced Luc was measured as luminescence intensity. Further, the β-Gal activity was measured as intensity of fluorescence generated when 4-methylumbelliferyl β-D-galactoside was added as a substrate, and the activity of Luc corrected for the transfection efficiency with the β-Gal activity was used as the index for evaluation. A smaller number indicates inhibitory action, and a larger number indicates promoting action.

SMILES | activity of Luc corrected for the transfection efficiency with the β-Gal activity (luciferase (Luc); test compound 0.01 μM) | activity of Luc corrected for the transfection efficiency with the β-Gal activity (luciferase (Luc); test compound 0.1 μM) | activity of Luc corrected for the transfection efficiency with the β-Gal activity (luciferase (Luc); test compound 1 μM) | activity of Luc corrected for the transfection efficiency with the β-Gal activity (luciferase (Luc); test compound 10 μM) | melting point [°C]
COc1ccc(N2Cc3cccc(N(C)C)c3C2=O)cc1 [Compound 14, 7-dimethylamino-2-(4-methoxyphenyl)-2,3-dihydro-isoindol-1-one] | 1.9 | 2.6 | 3.1 | 2.4 | 145 to 146
O=C(O)CCCc1ccc(N2Cc3ccc(F)cc3C2=O)cc1 [Compound 29, 4-[4-(6-fluoro-1-oxo-1,3-dihydro-isoindol-2-yl)-phenyl]-butyric acid] | 0.5 | 0.2 | 0.0 | 0.0 | 172 to 173
CCCCCCCCc1ccc(N2Cc3ccc(N(C)C)cc3C2=O)cc1 [Compound 10, 6-dimethylamino-2-(4-n-octyl-phenyl)-isoindol-1-one] | 0.9 | 0.7 | 0.3 | 0.4 | 100 to 101
Cc1ccc([N+](=O)[O-])c(C(=O)Nc2ccc(CCCC(=O)O)cc2)c1 [Compound 40, 4-[4-(5-methyl-2-nitro-benzoylamino)-phenyl]-butyric acid] | 0.8 | 0.9 | 0.8 | 0.8 | 152 to 153
CCCc1ccc(N2Cc3ccc(N(C)C)cc3C2=O)cc1 [Compound 2, 6-dimethylamino-2-(4-propyl-phenyl)-isoindol-1-one] | – | – | 2.8 | 3.0 | 141 to 142
